The target of one test is T1, EED (1-441)-His protein (Homo sapiens, UniProt O75530).
T1 construct: 30 nM EED (1-441)-His protein
The test can be described thus: EED-H3K27Me3 peptide competition binding assay by AlphaScreen. In outline: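 Serially diluted compound (12 points, 3-fold) incubated 20 min with 30 nM EED(1-441)-His and 15 nM biotin-H3K27Me3(19-33) peptide in 25 mM HEPES pH 8, 0.02% Tween-20, 0.5% BSA. Ni-chelate acceptor/streptavidin donor beads (10 μg/mL each) added, 1 h rt dark; 615 nm emission normalized to controls, dose-response fit for IC50.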
For orientation: In Alpha technology, singlet oxygen from a donor bead excites a nearby acceptor bead.

The target of test [1] is wild type PRC2 (wtPRC2) complex (Homo sapiens, UniProt O75530). The test can be described thus: EED LC-MS assay (SAH production by PRC2). Format: biochemical. The following applies: read-out: (b) IC50, EED LC-MS Qualified. On the procedure:
Compounds of the present invention were assessed for their ability to inhibit PRC2 activity in a pentameric complex of EZH2, SUZ12, EED, Rbap48 and AEBP in biochemical assays. The ability of compounds of the present invention to inhibit cellular activity of PRC2 was assessed by analysing histone H3 lysine 27 methylation in human cell lines. The ability of compounds of the present invention to inhibit cancers was derived from their ability to modulate activity in human cancer cell lines bearing specific dependence to PRC2 activity to maintain cancerous growth.
Representative compounds of the present invention were serially and separately diluted 3-fold in DMSO to obtain a total of eight or twelve concentrations. Then the test compounds at each concentration (120 nL of each) were transferred by Mosquito into a 384-well Perkin Elmer ProxiPlate 384 plus plates. Solutions (6 μL) of 24 nM the wild type PRC2 (wtPRC2) complex and 2 μM SAM in reaction buffer (20 mM Tris, pH 8.0, 0.1% BSA, 0.01% Triton, 0.5 mM DTT) were added to the wells that were then incubated with the test compound for 20 min. A 6 μL solution of 3 μM of the peptide substrate H3K27Me0 (histone H3[21-44]-biotin) in reaction buffer was added to initiate each reaction. The final components in the reaction solution include 12 nM wtPRC2 complex, 1 μM SAM, and 1.5 μM H3K27me0 peptide with varying concentration of the compounds. A positive control consisted of the enzyme, 1 μM SAM and 1.5 μM substrate in the absence of the test compound, and a negative control consisted of 1 μM SAM and 1.5 μM substrate only. Each reaction was incubated at rt for 120 min, then stopped by addition of 3 μL per of quench solution (2.5% TFA with 320 nM d4-SAH). The reaction mixture was centrifuged (Eppendorf centrifuge 5810, Rotor A-4-62) for 2 min at 2000 rpm and read on an API 4000 triple quadrupole mass spec with Turbulon Spray (Applied Biosystem) coupled with Prominence UFLC (Shimadzu). The levels of SAH production were then normalized based on the values coming from the positive and negative controls to give percent enzyme activities. The data were then fit to a dose response equation using the program Helios to get the IC50 values of the test compound.

Test [2] deals with H3K27 methylation in G401 cell. The test can be described thus: ELISA (H3K27 methylation) assay in G401 cells. In kind it is cell-based, human. The gist of the method: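 G401 cells treated 48 h with 3-fold dilutions (8 or 12 points, top 20 μM). Acid-extracted histones probed by ELISA for H3K27me3 or H3K27me2 with ECL readout, normalized to total H3. Percent inhibition versus DMSO fitted to dose-response curve for IC50.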

The mark [3] stands for this setting: read-out: (a) IC50, EED Alphascreen binding Qualified.
Setting [4] is: Homo sapiens, G-401, read-out: (c) IC50, ELISA Qualified.
[5] abbreviates: read-out: (a) IC50 EED Alphascreen binding Qualified.
Setting [6] is: Homo sapiens, G-401, read-out: (c) IC50 ELISA Qualified.

In patent US10689378B2, “Triazolopyridine compounds and uses thereof” (Novartis AG, priority 2016, dated 2020) one finds IC50 data, which are given here for 23 compounds.

The structures appear in SMILES notation. Where two headings read alike, the source gives them in different places.

T1 sequence (O75530 whole entry): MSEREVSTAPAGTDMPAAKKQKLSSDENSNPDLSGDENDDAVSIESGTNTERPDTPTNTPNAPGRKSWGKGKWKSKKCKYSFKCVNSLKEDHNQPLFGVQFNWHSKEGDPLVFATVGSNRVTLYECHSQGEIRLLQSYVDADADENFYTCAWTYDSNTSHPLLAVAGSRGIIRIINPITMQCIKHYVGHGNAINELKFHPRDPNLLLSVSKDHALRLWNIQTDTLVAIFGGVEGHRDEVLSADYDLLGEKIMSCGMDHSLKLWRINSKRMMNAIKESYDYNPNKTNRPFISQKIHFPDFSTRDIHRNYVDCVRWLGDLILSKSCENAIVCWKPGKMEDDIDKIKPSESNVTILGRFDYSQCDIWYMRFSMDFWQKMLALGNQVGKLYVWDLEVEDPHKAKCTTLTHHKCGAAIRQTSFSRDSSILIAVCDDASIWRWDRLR
wild type PRC2 (wtPRC2) complex, sequence (O75530 whole entry): as above
wild type PRC2 (wtPRC2) complex, sequence (Q15910 whole entry partner): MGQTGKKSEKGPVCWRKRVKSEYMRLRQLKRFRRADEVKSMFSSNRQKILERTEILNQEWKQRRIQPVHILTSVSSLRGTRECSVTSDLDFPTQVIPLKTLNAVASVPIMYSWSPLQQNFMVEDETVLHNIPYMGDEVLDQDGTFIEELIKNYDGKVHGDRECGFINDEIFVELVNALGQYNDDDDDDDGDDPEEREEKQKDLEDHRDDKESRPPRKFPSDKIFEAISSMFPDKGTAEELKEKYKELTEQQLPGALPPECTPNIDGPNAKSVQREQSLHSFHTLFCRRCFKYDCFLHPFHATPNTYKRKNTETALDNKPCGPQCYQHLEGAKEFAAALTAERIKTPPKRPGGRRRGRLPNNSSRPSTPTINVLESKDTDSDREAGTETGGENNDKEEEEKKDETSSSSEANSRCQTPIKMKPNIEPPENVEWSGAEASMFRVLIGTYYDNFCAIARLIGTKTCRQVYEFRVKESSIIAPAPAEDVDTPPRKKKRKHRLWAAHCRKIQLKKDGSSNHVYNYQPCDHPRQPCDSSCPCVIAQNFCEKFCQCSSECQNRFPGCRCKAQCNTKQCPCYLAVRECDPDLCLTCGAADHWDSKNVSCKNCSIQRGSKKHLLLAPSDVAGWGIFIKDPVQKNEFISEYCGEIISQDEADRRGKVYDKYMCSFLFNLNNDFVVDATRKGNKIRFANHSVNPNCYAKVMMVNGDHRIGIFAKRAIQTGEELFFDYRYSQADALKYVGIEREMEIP
wild type PRC2 (wtPRC2) complex, sequence (Q15022 whole entry partner): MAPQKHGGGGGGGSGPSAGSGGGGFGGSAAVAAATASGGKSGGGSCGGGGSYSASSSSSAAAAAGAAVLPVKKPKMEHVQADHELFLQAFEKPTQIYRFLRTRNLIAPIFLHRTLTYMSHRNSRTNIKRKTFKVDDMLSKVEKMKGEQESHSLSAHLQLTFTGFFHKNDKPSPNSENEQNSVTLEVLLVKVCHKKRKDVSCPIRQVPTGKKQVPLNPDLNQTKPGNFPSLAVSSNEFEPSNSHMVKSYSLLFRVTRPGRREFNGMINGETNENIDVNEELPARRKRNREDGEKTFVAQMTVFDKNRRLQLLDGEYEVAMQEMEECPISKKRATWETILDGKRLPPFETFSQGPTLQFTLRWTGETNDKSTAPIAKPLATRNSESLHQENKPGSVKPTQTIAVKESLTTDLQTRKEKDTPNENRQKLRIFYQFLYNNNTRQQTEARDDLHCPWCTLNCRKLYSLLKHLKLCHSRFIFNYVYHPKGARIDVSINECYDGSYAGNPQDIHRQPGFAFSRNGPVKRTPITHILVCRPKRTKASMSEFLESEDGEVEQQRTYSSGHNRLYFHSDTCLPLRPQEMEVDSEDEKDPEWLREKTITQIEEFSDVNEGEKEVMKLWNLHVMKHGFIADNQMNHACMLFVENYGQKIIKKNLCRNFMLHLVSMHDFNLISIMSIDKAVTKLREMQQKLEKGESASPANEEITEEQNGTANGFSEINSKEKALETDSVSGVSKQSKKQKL
wild type PRC2 (wtPRC2) complex, sequence (Q09028 whole entry partner): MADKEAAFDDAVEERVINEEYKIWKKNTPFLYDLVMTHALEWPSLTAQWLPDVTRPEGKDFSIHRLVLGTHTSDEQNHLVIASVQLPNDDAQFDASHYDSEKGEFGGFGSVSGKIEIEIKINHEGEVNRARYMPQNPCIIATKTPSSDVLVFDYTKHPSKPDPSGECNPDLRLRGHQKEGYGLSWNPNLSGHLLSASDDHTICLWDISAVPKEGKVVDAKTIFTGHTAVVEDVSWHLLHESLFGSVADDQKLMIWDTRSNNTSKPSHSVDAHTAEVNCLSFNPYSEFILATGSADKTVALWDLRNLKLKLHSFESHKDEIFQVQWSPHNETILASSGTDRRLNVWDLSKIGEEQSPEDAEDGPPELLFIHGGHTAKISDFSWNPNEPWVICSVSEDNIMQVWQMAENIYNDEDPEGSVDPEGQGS
wild type PRC2 (wtPRC2) complex, sequence (Q6ZN18 whole entry partner): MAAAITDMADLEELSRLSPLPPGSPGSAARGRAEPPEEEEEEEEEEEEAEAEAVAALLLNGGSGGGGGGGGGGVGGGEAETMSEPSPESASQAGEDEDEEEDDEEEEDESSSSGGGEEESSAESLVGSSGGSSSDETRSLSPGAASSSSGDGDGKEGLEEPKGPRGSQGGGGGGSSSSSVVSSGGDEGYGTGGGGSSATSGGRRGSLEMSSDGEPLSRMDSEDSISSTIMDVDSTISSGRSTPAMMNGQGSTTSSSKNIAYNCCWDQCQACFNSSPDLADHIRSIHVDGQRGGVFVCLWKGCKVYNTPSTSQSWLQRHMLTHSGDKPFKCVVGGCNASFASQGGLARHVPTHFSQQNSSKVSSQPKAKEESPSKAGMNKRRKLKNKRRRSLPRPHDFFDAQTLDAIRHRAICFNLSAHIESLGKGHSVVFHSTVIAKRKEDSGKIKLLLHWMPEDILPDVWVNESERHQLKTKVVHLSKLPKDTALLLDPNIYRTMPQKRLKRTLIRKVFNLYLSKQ

`COc1cccc(F)c1CNc1ccc(-c2ccnn2C)c2nncn12` [Example 1, N-(2-Fluoro-6-methoxybenzyl)-8-(1-methyl-1H-pyrazol-5-yl)-[1,2,4]triazolo[4,3-a]pyridin-5-amine]: the values for the half-maximal inhibitory concentration (IC50) (at EED (1-441)-His protein (setting [3]); in test [1]; in test [2] (setting [4])) were 0.0277 µM, 0.0112 µM and 0.0181 µM, respectively.

For the compound `COc1cccc(F)c1CNc1ccc(-c2cccnc2C)c2nncn12` [Example 2, N-(2-Fluoro-6-methoxybenzyl)-8-(2-methylpyridin-3-yl)-[1,2,4]triazolo[4,3-a]pyridin-5-amine], the IC50 came to 0.0109 µM on EED (1-441)-His protein (setting [3]), 0.0188 µM in test [1] and 0.0087 µM in test [2] (setting [4]).

For `COc1cccc(F)c1CNc1ccc(-c2cnc(C)nc2C)c2nncn12` [Example 3, 8-(2,4-Dimethylpyrimidin-5-yl)-N-(2-fluoro-6-methoxybenzyl)-[1,2,4]triazolo[4,3-a]pyridin-5-amine], the figures for the IC50 (on EED (1-441)-His protein (setting [3]); in test [1]; in test [2] (setting [4])) were 0.0175 µM, 0.0236 µM and 0.0107 µM, respectively.

For the compound `COc1cccc(F)c1CNc1ccc(-c2cnc(CC(C)C)nc2C)c2nncn12` [Example 4, N-(2-Fluoro-6-methoxybenzyl)-8-(2-isobutyl-4-methylpyrimidin-5-yl)-[1,2,4]triazolo[4,3a]-pyridin-5-amine], the results for the IC50 (on EED (1-441)-His protein (setting [3]); in test [1]; in test [2] (setting [4])) were 0.0086 µM, 0.0066 µM and 0.0057 µM, respectively.

In the case of `COc1cccc(F)c1CNc1ccc(-c2ccccn2)c2nncn12` [Example 5, N-(2-Fluoro-6-methoxybenzyl)-8-(pyridin-2-yl)-[1,2,4]triazolo[4,3-a]pyridin-5-amine], the IC50 was 0.0482 µM on EED (1-441)-His protein (setting [3]), 0.137 µM in test [1] and 0.0426 µM in test [2] (setting [4]).

As to `COc1cccc(F)c1CNc1ccc(-c2ncccc2C)c2nncn12` [Example 6, N-(2-Fluoro-6-methoxybenzyl)-8-(3-methylpyridin-2-yl)-[1,2,4]triazolo[4,3-a]pyridin-5-amine], the figures for the IC50 (on EED (1-441)-His protein (setting [3]); in test [1]; in test [2] (setting [4])) were 0.0909 µM, 0.149 µM and 0.057 µM, respectively.

Turning to `COc1cccc(F)c1CNc1ccc(-n2cc(C)nc2C)c2nncn12` [Example 7, 8-(2,4-Dimethyl-1H-imidazol-1-yl)-N-(2-fluoro-6-methoxybenzyl)-[1,2,4]triazolo[4,3-a]pyridin-5-amine], the IC50 at EED (1-441)-His protein (setting [3]) stood at 0.0187 µM; in test [1], 0.0114 µM; in test [2] (setting [4]), 0.0101 µM.

As to `COc1cccc(F)c1CNc1ccc(-c2cncn2C)c2nncn12` [Example 8], the IC50 on EED (1-441)-His protein (setting [3]) was 0.0106 µM; in test [1], 0.0352 µM; in test [2] (setting [4]), 0.0043 µM.

As for `COc1cccc(F)c1CNc1ccc(-c2nnc(C)o2)c2nncn12` [Example 9, N-(2-Fluoro-6-methoxybenzyl)-8-(5-methyl-1,3,4-oxadiazol-2-yl)-[1,2,4]triazolo[4,3-a]pyridin-5-amine], the IC50 is 0.0339 µM at EED (1-441)-His protein (setting [3]), 0.0624 µM in test [1] and 0.0024 µM in test [2] (setting [4]).

Turning to `CCc1nc(-c2ccc(NCc3c(F)cccc3OC)n3cnnc23)no1` [Example 10, 8-(5-Ethyl-1,2,4-oxadiazol-3-yl)-N-(2-fluoro-6-methoxybenzy)-[1,2,4]triazolo[4,3-a]pyridin-5-amine], the concentration for half-maximal inhibition (IC50) at EED (1-441)-His protein (setting [3]) stood at 0.0611 µM; in test [1] it was 0.198 µM; in test [2] (read-out: (c) IC50, ELISA Qualified), 0.0093 µM.

`COc1cccc(F)c1CNc1ccc(-c2nc(C)no2)c2nncn12` [Example 11, N-(2-Fluoro-6-methoxybenzyl)-8-(3-methyl-1,2,4-oxadiazol-5-yl)-[1,2,4]triazolo[4,3-a]pyridin-5-amine]: the IC50 on EED (1-441)-His protein (setting [3]) turned out to be 0.0307 µM; in test [1], 0.119 µM; in test [2] (setting [4]), 0.0405 µM.

`COc1ccccc1CNc1ccc(-c2ccc(CN(C)C)cc2)c2nncn12` [Example 15, 8-(4-((dimethylamino)methyl)phenyl)-N-(2-methoxybenzyl)-[1,2,4] triazolo[4,3-a]pyridin-5-amine]: the concentration for half-maximal inhibition (IC50) on EED (1-441)-His protein (setting [3]) stood at 0.0149 µM; in test [1] it was 0.0663 µM; in test [2] (setting [4]) it was 0.0175 µM.

For `COc1ccc(-c2ccc(NCc3ccccc3OC)n3cnnc23)cn1` [Example 16, N-(2-methoxybenzyl)-8-(6-methoxypyridin-3-yl)-[1,2,4] triazolo[4,3-a]pyridin-5-amine], the results for the half-inhibitory concentration (IC50) (on EED (1-441)-His protein (setting [3]); in test [1]; in test [2] (setting [4])) were 0.0562 µM, 0.377 µM and 0.158 µM, respectively.

As to `COc1ccccc1CNc1ccc(-c2ccc(S(=O)(=O)N3CCN(C)CC3)cc2)c2nncn12` [Example 18, N-(2-methoxybenzyl)-8-(4-((4-methylpiperazin-1-yl)sulfonyl)phenyl)-[1,2,4] triazolo[4,3-a]pyridin-5-amine], the IC50 at EED (1-441)-His protein (setting [3]) was determined as 0.0817 µM; in test [1], 0.93 µM; in test [2] (setting [4]), 0.115 µM.

With `CN(C)Cc1ccc(-c2ccc(NCc3ccccc3OC(F)F)n3cnnc23)cc1` [Example 19, N-(2-(difluoromethoxy)benzyl)-8-(4-((dimethylamino)methyl)phenyl)-[1,2,4]triazolo[4,3-a] pyridin-5-amine], the results for the IC50 (at EED (1-441)-His protein (setting [3]); in test [1]; in test [2] (setting [4])) were 0.169 µM, 0.587 µM and 0.363 µM, respectively.

As to `COc1ccccc1CNc1ccc(-c2cnc(N3CCN(C)CC3)c(C)c2)c2nncn12` [Example 20, N-(2-methoxybenzyl)-8-(5-methyl-6-(4-methylpiperazin-1-yl)pyridin-3-yl)-[1,2,4]triazolo[4,3-a]pyridin-5-amine], the IC50 on EED (1-441)-His protein (setting [3]) is 0.079 µM; in test [1] it was 0.248 µM; in test [2] (setting [4]) it was 0.185 µM.

For `Cc1cccc(F)c1CNc1ccc(-c2cccnc2C)c2nncn12` [Example 331, N-(2-fluoro-6-methylbenzyl)-8-(2-methylpyridin-3-yl)-[1,2,4]triazolo[4,3-a] pyridin-5-amine], the IC50 at EED (1-441)-His protein (EED-H3K27Me3 peptide competition, AlphaScreen, read-out: (a) IC50 EED Alphascreen binding Qualified) was 0.459 µM; in test [2] (Homo sapiens, G-401, H3K27 methylation ELISA, read-out: (c) IC50 ELISA Qualified), 0.519 µM.

With `COc1cccc(F)c1CNc1ccc(-c2c(C)ccnc2C)c2nncn12` [Example 346, 8-(2,4-dimethylpyridin-3-yl)-N-(2-fluoro-6-methoxybenzyl)-[1,2,4]triazolo[4,3-a] pyridin-5-amine], the IC50 was 0.142 µM at EED (1-441)-His protein (setting [5]) and 0.261 µM in test [2] (setting [6]).

Regarding `COc1cccnc1CNc1ccc(-c2cccnc2C)c2nncn12` [Example 347, N-((3-methoxypyridin-2-yl)methyl)-8-(2-methylpyridin-3-yl)-[1,2,4]triazolo[4,3-a] pyridin-5-amine], the IC50 was 0.791 µM at EED (1-441)-His protein (setting [5]) and 0.771 µM in test [2] (setting [6]).

As for `COc1cnccc1CNc1ccc(-c2cccnc2C)c2nncn12` [Example 360, N-((3-methoxypyridin-4-yl)methyl)-8-(2-methylpyridin-3-yl)-[1,2,4]triazolo[4,3-a] pyridin-5-amine], the IC50 came to 4.09 µM on EED (1-441)-His protein (setting [5]) and 3.04 µM in test [2] (setting [6]).

Consider `COc1cccc(CNc2ccc(-c3cccnc3C)c3nncn23)n1` [Example 364, N-((6-methoxypyridin-2-yl)methyl)-8-(2-methylpyridin-3-yl)-[1,2,4]triazolo[4,3-a] pyridin-5-amine], for which the IC50 at EED (1-441)-His protein (setting [5]) turned out to be 0.12 µM; in test [2] (setting [6]) it was 0.0806 µM.

For `COc1cccc(F)c1CNc1ccc(-c2cn(C)c(C)n2)c2nncn12` [Example 365, 8-(1,2-dimethyl-1H-imidazol-4-yl)-N-(2-fluoro-6-methoxybenzyl)-[1,2,4] triazolo[4,3-a]pyridin-5-amine], the IC50 at EED (1-441)-His protein (setting [5]) came out at 0.197 µM; in test [2] (setting [6]) it was 0.279 µM.

With `COc1nccc(N)c1CNc1ccc(-c2cccnc2C)c2nncn12` [Example 371, N-((4-amino-2-methoxypyridin-3-yl)methyl)-8-(2-methylpyridin-3-yl)-[1,2,4] triazolo[4,3-a]pyridin-5-amine], the IC50 on EED (1-441)-His protein (setting [5]) was 0.102 µM; in test [2] (setting [6]), 0.0927 µM.

As a reminder, the IC50 is the concentration that gives 50% inhibition.
